Entries after “also recorded” stand apart in the source; their conditions may differ. Ends that are not written are not given here.
Assays:
T cells = assay: in vitro T cell proliferation in response to stimulation with anti-CD3 antibodies, with or without exogenous VIP; type: cell-based; conditions: for reversal / block of the suppressive effect of exogenous VIP on T cell proliferation: exogenous VIP peptide added
Experimental: Whether VIPhyb treatment would enhance T cell activation and cytotoxicity in response to melanoma, which can be highly immunogenic, was tested.
The anticancer activity of treatment with VIPhyb appears to be T cell mediated.

[1] = in vitro stability of the peptide on the nanoparticle; type: physicochemical; conditions: nanoparticle-conjugated peptide
melanoma = assay: direct effect of VIPhyb on melanoma cells; type: cell-based; conditions: melanoma expressing VPAC2
[2] = test system: KPC luc pancreatic cancer cells; assay: MTT assay of viable KPC luc cells after VIPhyb; type: cell-based, murine; conditions: 0, 0.5, 1, 3 and 5 uM VIPhyb, 24 hours
Experimental: KPC luc pancreatic cancer cells were cultured in a 96 well plate for 24 hours with different concentrations of VIPhyb (0, 0.5, 1, 3 and 5 uM). Number of viable cells after 24 hours were quantified via MTT assay.

[3] = test system: luciferase expressing splenocytes from B6 mice; assay: splenocyte co-culture with irradiated B16F1 and B16F10 cells, proliferation by BLI; type: cell-based, mouse; conditions: co-culture with irradiated B16 cells, anti-CD3 pre-coated plates, low-dose IL-2, 3 days
Experimental: Splenocytes isolated from 3 naïve luciferase+ B6 mouse were cultured with irradiated B16 cells and with or without VIPhyb in triplicate, and proliferation measured with BLI.
Whether combination of a VIPhyb with a PD-1 inhibitor could enhance an adaptive immune response to the more aggressive B16F10 model in vitro was investigated. Therefore, irradiated B16F1 and B16F10 cells were co-cultured with luciferase expressing splenocytes from B6 mice. Cells were placed in 96-well plates pre-coated with anti-CD3 antibody and low-dose recombinant murine IL-2 for 3 days and assessed proliferation by BLI.

B16F1 cells = assay: B16F1 melanoma syngeneic model in B6 Albino mice, VIPhyb alone; type: in vivo, mouse
Experimental: To investigate VIPhyb as an immunotherapy for melanoma, and to determine the best route of administration, Luciferase-expression B16F1 cells were injected into B6 Albino syngeneic recipients and given 10 μg of VIPhyb peritumorally or subcutaneously on the contralateral flank beginning 1 day before tumor inoculation and continuing daily until the experimental endpoint.
Whether VIPhyb has an effect on adaptive immunity was testes. Mice with tumors that exceeded 500 mm^3 in volume were euthanized and their splenocytes phenotyped using flow cytometry. Blood was also collected for a complete blood count (CBC) to determine amount of peripheral white blood cells (WBCs). Of particular interest was the expansion of CD8+ T cells to corroborate the in vitro data, and expression of the inhibitory molecule PD-1.

B16F10 cells = assay: B16F10 melanoma model in B6 Albino mice, VIPhyb and/or anti-PD-1 antibody; type: in vivo, mouse; conditions: VIPhyb 10 μg s.c. daily for 10 days, PD-1 antibody 200 μg i.p. every 3 days, three doses, versus untreated
Experimental: Tumor volumes were calculated as […].
B16F10 cells were injected into B6 Albino mice. VIPhyb (10 μg) was administered subcutaneously every day for 10 days. Three doses of 200 μg of an PD-1 antibody was intraperitoneally administered every 3 days. A combination both VIPhyb and the PD-1 antibody were also administered.

Substance: VIPhyb-NP: VIPhyb with C-terminal GGGGSC linker (SEQ ID NO: 3) conjugated to a 30 nm Pluronic-stabilized polypropylene sulfide nanoparticle (KPRRPYTDNYTRLRKQMAVKKYLNSILNGGGGSC; also: conjugated to 30 nm Pluronic-stabilized polypropylene sulfide nanoparticle)
- in vitro T cell proliferation in response to stimulation with anti-CD3 antibodies (T cells): conserved
- reversal / block of the suppressive effect of exogenous VIP on T cell proliferation (T cells): able to block the effects of exogenous VIP at higher concentrations
- potency of the nanoparticle formulation (T cells; nanoparticle formulation versus free peptide): increased potency
- stabilization of the peptide in vitro [1]: stabilize the peptide in vitro

Substance: KPRRPYTDNYTRLRKQMAVKKYLNSILN [VIPhyb, hybrid peptide of neurotensin (6-11) and VIP (7-28); antagonist of VIP signalling]
- direct effect on melanoma growth, invasiveness, and modulation of inhibitory surface molecules (melanoma): absence of a direct effect
- number of viable cells (direct killing) [2]: does not directly kill
- splenocyte / T cell proliferation [3]: not enough to promote expansion of splenocytes; also recorded: lack of splenocyte proliferation
- in vitro T cell proliferation in response to stimulation with anti-CD3 antibodies (T cells): dose-dependent enhancement
- reversal / block of the suppressive effect of exogenous VIP on T cell proliferation (T cells): reversal of the suppressive effect of exogenous VIP peptide; also recorded: reversed exogenous VIP mediated splenic T cell suppression
- survival (B16F1 cells; B16F1, 10 μg VIPhyb daily): no significant difference
- tumor volume / tumor growth (B16F1 cells; B16F1, 10 μg VIPhyb daily, digital calipers twice weekly, versus untreated): no significant change; also recorded: did not have a significant effect; also recorded: does not affect tumor size
- overall tumor burden by bioluminescent imaging (B16F1 cells; B16F1, once weekly BLI): no tumor reduction
- peripheral WBCs (B16F1 cells; peripheral blood, complete blood count): nonsignificant modest increase
- tumor burden between the two routes of administration (B16F1 cells; peritumorally versus subcutaneously on the contralateral flank): no difference in tumor burden
- B cells (B16F1 cells; spleen upon euthanasia): nonsignificant increase
- NK cells (B16F1 cells; spleen upon euthanasia): nonsignificant increase
- dendritic cell subtypes (B16F1 cells; spleen upon euthanasia): nonsignificant increase
- CD4+ T cells (B16F1 cells; spleen upon euthanasia, flow cytometry): nonsignificant modest increase
- CD8+ T cells (B16F1 cells; spleen upon euthanasia, flow cytometry, versus PBS/saline-treated controls): significantly more; also recorded: Increased CD8+ T cell Proliferation; also recorded: more effector CD8+ T cells; also recorded: bolsters CD8+ proliferation
- frequency of IFNγ, TNF, Granzyme B, and IL-2-producing cells in the CD4+ and CD8+ compartments (B16F1 cells; spleen, intracellular cytokine staining, versus PBS treated controls): no significant difference
- frequency of CD4+ and CD8+ T cells expressing PD-1, CTLA-4, and Lag-3 (B16F1 cells; spleen, versus PBS treated controls): no significant difference
- tumor volume / tumor growth (B16F10 cells): lower average tumor volume

Reference: US11471506B2, “VIP antagonists and uses in treating cancer” (Emory University, priority 2018, dated 2022)
